Measurements: PubChem BioAssay AID200 (DTP/NCI, 2004)
“And” between values parts separate entries of the source, which are not always exact repeats. Identical values can stand only once. Toxic doses and inconclusive results are not listed. Where a SMILES comes first, the peptide text is derived from it.

Tested on: B6C3F1 mice, B16 melanoma ip, median survival T/C
Assay: NCI In Vivo Anticancer Drug Screen. Data for tumor model B16 Melanoma (intraperitoneal) in B6C3F1 mice
Conditions: endpoint: median survival time, higher = longer survival
Protocol: The antitumor activity of compounds was measured in mice bearing transplantable tumors. Survival or tumor size were measured and the results are expressed as the measurement made in the treated group (T) divided by the measurement made in the vehicle treated control group (C). The tumor model used in this assay is B16 Melanoma (intraperitoneal) in B6C3F1 mice

[1] = dose: 25.0 mg/kg/injection, schedule: Q01DX009 (ip), vehicle: saline with Tween-80
[2] = dose: 50.0 mg/kg/injection, schedule: Q01DX009 (ip), vehicle: saline with Tween-80
[3] = dose: 100.0 mg/kg/injection, schedule: Q01DX009 (ip), vehicle: saline with Tween-80
[4] = dose: 200.0 mg/kg/injection, schedule: Q01DX009 (ip), vehicle: saline with Tween-80
[5] = dose: 400.0 mg/kg/injection, schedule: Q01DX009 (ip), vehicle: saline with Tween-80
[6] = dose: 6.25 mg/kg/injection, schedule: Q01DX009 (ip), vehicle: saline with Tween-80
[7] = dose: 12.5 mg/kg/injection, schedule: Q01DX009 (ip), vehicle: saline with Tween-80
[8] = dose: 12.5 mg/kg/injection, schedule: Q01DX009 (ip), vehicle: Klucel (hydroxypropylcellulose) (HPC)
[9] = dose: 50.0 mg/kg/injection, schedule: Q01DX009 (ip), vehicle: Klucel (hydroxypropylcellulose) (HPC)
[10] = dose: 100.0 mg/kg/injection, schedule: Q01DX009 (ip), vehicle: Klucel (hydroxypropylcellulose) (HPC)
[11] = dose: 200.0 mg/kg/injection, schedule: Q01DX009 (ip), vehicle: Klucel (hydroxypropylcellulose) (HPC)
[12] = dose: 400.0 mg/kg/injection, schedule: Q01DX009 (ip), vehicle: Klucel (hydroxypropylcellulose) (HPC)
[13] = dose: 12.5 mg/kg/injection, schedule: Q01DX009 (ip), vehicle: saline
[14] = dose: 25.0 mg/kg/injection, schedule: Q01DX009 (ip), vehicle: saline
[15] = dose: 50.0 mg/kg/injection, schedule: Q01DX009 (ip), vehicle: saline
[16] = dose: 400.0 mg/kg/injection, schedule: Q01DX009 (ip), vehicle: saline

With `C=CC(C)(C)n1cc(C2=C(O)C(=O)C(c3cn(C(C)(C)C=C)c4ccccc34)=C(O)C2=O)c2ccccc21` the T/C (dose: 2.5 micrograms/kg/injection, schedule: Q01DX009 (ip), vehicle: DMSO) was 87 % of control, the T/C (dose: 5.0 micrograms/kg/injection, schedule: Q01DX009 (ip), vehicle: DMSO) was 91 % of control and the T/C (dose: 10.0 micrograms/kg/injection, schedule: Q01DX009 (ip), vehicle: DMSO) was 86 % of control. The T/C (dose: 20.0 micrograms/kg/injection, schedule: Q01DX009 (ip), vehicle: DMSO) was 87 % of control.
With `CC(=O)OC1C2CCC3C(C)(O)C4CC(O)C(C)(C)C4(O)C(O)CC13CC2(C)O` (stereo not drawn) the T/C (dose: 0.25 mg/kg/injection, schedule: Q01DX009 (ip), vehicle: Klucel (hydroxypropylcellulose) (HPC)) was 111 % of control, the T/C (dose: 0.5 mg/kg/injection, schedule: Q01DX009 (ip), vehicle: Klucel (hydroxypropylcellulose) (HPC)) was 100 % of control and the T/C (dose: 1.0 mg/kg/injection, schedule: Q01DX009 (ip), vehicle: Klucel (hydroxypropylcellulose) (HPC)) was 121 % of control.
In the case of `CCC(=O)[O-].CCC(=O)[O-].CCC(=O)[O-].CCC(=O)[O-].O=S(=O)(O)O.[Re].[Re]`, the T/C (dose: 64.8 mg/kg/injection, schedule: Q01DX009 (ip), vehicle: suspension in saline) is reported as 93 % of control, the T/C (dose: 108.0 mg/kg/injection, schedule: Q01DX009 (ip), vehicle: suspension in saline) is reported as 86 % of control and the T/C (dose: 300.0 mg/kg/injection, schedule: Q01DX009 (ip), vehicle: suspension in saline) is reported as 86 % of control.
With `CN(C=O)C(C(=O)Nc1cccc2c(OC(=O)C(N(C)C=O)(N(C)C=O)N(C)C=O)c(N=Nc3ccc(S(=O)(=O)Nc4nccs4)cc3)cc(N=Nc3ccc(S(=O)(=O)Nc4nccs4)cc3)c12)(N(C)C=O)N(C)C=O` (tested in a mixture with another compound) the T/C [1] was 98 % of control, the T/C [2] was 112 % of control and the T/C [3] was 121 % of control. For the same molecule, the T/C [4] was 104 % of control and the T/C [5] was 105 % of control.
For `COc1ccc(C(Cn2ccnc2)Sc2ccc(Cl)c(Cl)c2)cc1` (stereo not drawn), the T/C (dose: 3.12 mg/kg/injection, schedule: Q01DX009 (ip), vehicle: saline with Tween-80) was 94 % of control, the T/C [6] was 92 % of control and 96 % of control and 107 % of control and the T/C [7] was 95 % of control and 96 % of control and 103 % of control. The T/C [1] was 95 % of control and 97 % of control and 100 % of control.
`CC1=NNC(=O)C1CCO` (stereo not drawn) was tested, and the T/C [8] was 98 % of control, the T/C (dose: 25.0 mg/kg/injection, schedule: Q01DX009 (ip), vehicle: Klucel (hydroxypropylcellulose) (HPC)) was 104 % of control and the T/C [9] was 98 % of control. The T/C [10] was 98 % of control, the T/C [11] was 96 % of control and the T/C [12] was 96 % of control.
In the case of `CC(=O)N(C)C`, the T/C (dose: 122.5 mg/kg/injection, schedule: Q01DX009 (ip), vehicle: saline) is reported as 89 % of control, the T/C (dose: 225.0 mg/kg/injection, schedule: Q01DX009 (ip), vehicle: saline) is reported as 95 % of control and the T/C (dose: 450.0 mg/kg/injection, schedule: Q01DX009 (ip), vehicle: saline) is reported as 95 % of control. For the same molecule, the T/C (dose: 900.0 mg/kg/injection, schedule: Q01DX009 (ip), vehicle: saline) was 105 % of control and the T/C (dose: 1800.0 mg/kg/injection, schedule: Q01DX009 (ip), vehicle: saline) was 114 % of control.
For `COc1cc(C(=O)c2cocc2C(=O)c2ccc3c(c2)OCO3)cc(OC)c1OC`, the T/C [9] was 92 % of control and 101 % of control, the T/C [10] was 113 % of control and 91 % of control and the T/C [11] was 112 % of control. The T/C [12] was 117 % of control.
For `[NH-]C(CCC(N)=O)C(=O)O.[NH-]C(CCC(N)=O)C(=O)O.[Zn+2]` (stereo not drawn), the T/C [6] was 95 % of control, the T/C [7] was 93 % of control and the T/C [1] was 98 % of control. For the same molecule, the T/C [2] was 90 % of control.
In the case of `O=C1C=CC(=O)O1` (tested in a mixture with another compound), the T/C [13] is reported as 101 % of control, the T/C (dose: 12.5 mg/kg/injection, schedule: Q04DX003 (ip), vehicle: saline) is reported as 104 % of control and the T/C [14] is reported as 113 % of control. The T/C (dose: 25.0 mg/kg/injection, schedule: Q04DX003 (ip), vehicle: saline) was 101 % of control and 106 % of control, the T/C [15] was 117 % of control and the T/C (dose: 50.0 mg/kg/injection, schedule: Q04DX003 (ip), vehicle: saline) was 108 % of control. For the same molecule, the T/C [16] was 123 % of control.
With `O=C1N=C(Oc2ccccc2)SC1=O` the T/C [7] was 110 % of control, the T/C [1] was 98 % of control and the T/C [2] was 103 % of control. For the same molecule, the T/C [3] was 92 % of control.
`C/C(=N\NC(N)=O)c1cccc(/C(C)=N/NC(N)=O)n1` was tested, and the T/C [6] was 93 % of control, the T/C [7] was 96 % of control and the T/C [1] was 87 % of control. The T/C [2] was 90 % of control.
`OCC(O)C(O)C(O)C(O)CO` (stereo not drawn) was tested, and the T/C (dose: 75.0 mg/kg/injection, schedule: Q01DX009 (ip), vehicle: saline) was 107 % of control, the T/C (dose: 150.0 mg/kg/injection, schedule: Q01DX009 (ip), vehicle: saline) was 104 % of control and the T/C (dose: 300.0 mg/kg/injection, schedule: Q01DX009 (ip), vehicle: saline) was 112 % of control. For the same molecule, the T/C (dose: 600.0 mg/kg/injection, schedule: Q01DX009 (ip), vehicle: saline) was 112 % of control and the T/C (dose: 1200.0 mg/kg/injection, schedule: Q01DX009 (ip), vehicle: saline) was 98 % of control.
In the case of `O=C(O)C(O)C(O)C1[O][Sb][O]C1C(=O)O` (stereo not drawn), the T/C (dose: 6.25 mg/kg/injection, schedule: Q01DX009 (ip), vehicle: saline) is reported as 96 % of control, the T/C [13] is reported as 97 % of control and the T/C [14] is reported as 104 % of control. The T/C [15] was 107 % of control.
In the case of `[O-][n+]1c(CN2CCCCC2)nc2cccc3c2c1-c1ccccc1-3`, the T/C [7] is reported as 98 % of control, the T/C [1] is reported as 88 % of control and the T/C [2] is reported as 102 % of control. For the same molecule, the T/C [3] was 91 % of control and the T/C [5] was 103 % of control.
For `Nc1ccc(C(=O)O)c(O)c1`, the T/C (dose: 4.7 mg/kg/injection, schedule: Q01DX009 (ip), vehicle: saline with Tween-80) was 90 % of control, the T/C (dose: 6.25 mg/kg/injection, schedule: Q01DX009 (ip), vehicle: Klucel (hydroxypropylcellulose) (HPC)) was 95 % of control and the T/C (dose: 9.3 mg/kg/injection, schedule: Q01DX009 (ip), vehicle: saline with Tween-80) was 113 % of control and 103 % of control. For the same molecule, the T/C [8] was 101 % of control, the T/C (dose: 18.7 mg/kg/injection, schedule: Q01DX009 (ip), vehicle: saline with Tween-80) was 93 % of control and 102 % of control and the T/C (dose: 37.5 mg/kg/injection, schedule: Q01DX009 (ip), vehicle: saline with Tween-80) was 109 % of control (2×) and 97 % of control. For the same molecule, the T/C (dose: 75.0 mg/kg/injection, schedule: Q01DX009 (ip), vehicle: saline with Tween-80) was 99 % of control and 100 % of control and 106 % of control, the T/C [10] was 92 % of control and the T/C (dose: 150.0 mg/kg/injection, schedule: Q01DX009 (ip), vehicle: saline with Tween-80) was 93 % of control. For the same molecule, the T/C [11] was 86 % of control and the T/C (dose: 300.0 mg/kg/injection, schedule: Q01DX009 (ip), vehicle: saline with Tween-80) was 97 % of control.
With `CC(C)OC(CCCl)c1ccccc1` (stereo not drawn) the T/C [3] was 94 % of control, the T/C [4] was 87 % of control and the T/C [5] was 100 % of control.
In the case of `CCCC(NC(=O)OCc1ccccc1)C(=O)O` (stereo not drawn), the T/C [3] is reported as 92 % of control and the T/C [4] is reported as 90 % of control.
For `CCC(N)C(=O)NCC(=O)NCC(=O)O` (stereo not drawn) (HELM PEPTIDE1{[CCC(N)C(=O)[*:2]].G.G}$$$$V2.0), the T/C (dose: 100.0 mg/kg/injection, schedule: Q01DX009 (ip), vehicle: saline) was 105 % of control, the T/C (dose: 200.0 mg/kg/injection, schedule: Q01DX009 (ip), vehicle: saline) was 108 % of control and the T/C [16] was 109 % of control.
For `CCC[CH2][Sn]1([CH2]CCC)[O]C2C(CO)OC(n3ccc(N)nc3=O)C2[O]1` (stereo not drawn), the T/C (dose: 0.05 mg/kg/injection, schedule: Q01DX009 (ip), vehicle: Klucel (hydroxypropylcellulose) (HPC)) was 94 % of control, the T/C (dose: 0.1 mg/kg/injection, schedule: Q01DX009 (ip), vehicle: Klucel (hydroxypropylcellulose) (HPC)) was 90 % of control and the T/C (dose: 0.2 mg/kg/injection, schedule: Q01DX009 (ip), vehicle: Klucel (hydroxypropylcellulose) (HPC)) was 101 % of control. For the same molecule, the T/C (dose: 0.4 mg/kg/injection, schedule: Q01DX009 (ip), vehicle: Klucel (hydroxypropylcellulose) (HPC)) was 95 % of control.
For `O=C1c2ccccc2C(=O)c2c3c(cc(NCCNCCO)c21)N(CCO)CCN3`, the T/C (dose: 25.0 mg/kg/injection, schedule: Q01DX009 (ip), vehicle: DMSO) was 108 % of control, the T/C (dose: 50.0 mg/kg/injection, schedule: Q01DX009 (ip), vehicle: DMSO) was 112 % of control and the T/C (dose: 100.0 mg/kg/injection, schedule: Q01DX009 (ip), vehicle: DMSO) was 167 % of control.
